Reference: US6471973B2 (Coletica, priority 1998, dated 2002)
Each block holds one compound with its values, some of them ahead of it.

Legend:
[1] = in vivo
Description: This preparation is used for the following toxicity studies:
The tests were performed by the official method in accordance with the decree of Feb.

[2] = Oxidation stability test on flavonoids in simple preparations (color of solutions); assay type: physicochemical; conditions: 0.103 M in ethoxydiglycol, Pantone color
Description: A solution of […] containing 31.1 g/l (i.e. 0.103 M) is prepared in ethoxy-diglycol. The pH is adjusted to 5 or 6 and then 10 g/l of a preservative based on parabens are added to the mixture in order to avoid bacterial pollution. […] At identical molar concentrations, the two products are therefore compared for their oxidation stability, the color parameters being used as the stability indicators. The color references given in the Examples which follow refer to the Pantone colors as used in all the paint color charts well known to those skilled in the art.

[3] = Oxidation stability test on flavonoids in complex preparations (emulsions); assay type: physicochemical; conditions: 45° C.
Description: Oxidation stability test on flavonoids in complex preparations (emulsions) Composition of the formulation: [table] After studying the stabilities over about 1 month, it can be said that the color of the formulations containing flavonoids used in the form which has not been rendered lipophilic undergoes an extremely unfavorable change at 45° C.

[4] = biological target: T1, human leukocytic elastase (Homo sapiens, UniProt P08246); assay: Determination of the anti-elastase activity (elastin-rhodamine, fluorescence); assay type: biochemical; conditions: solubilized in ethoxydiglycol, 20 min at 37° C.
T1 sequence (P08246 30-267): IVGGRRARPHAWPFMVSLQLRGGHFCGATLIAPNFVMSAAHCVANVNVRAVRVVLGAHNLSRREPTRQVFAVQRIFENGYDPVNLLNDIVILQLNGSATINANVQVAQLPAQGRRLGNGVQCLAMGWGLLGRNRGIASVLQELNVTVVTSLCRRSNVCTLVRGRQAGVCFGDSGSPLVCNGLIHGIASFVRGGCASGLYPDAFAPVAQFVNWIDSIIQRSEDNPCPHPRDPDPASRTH
Description: The enzymatic substrate elastin-rhodamine is dissolved in TrisHCl buffer (31.52 g of TrisHCl, water qsp 1000 ml) of pH 8.8 at a rate of 15 mg/ml. 1 mg of human leukocytic elastase is dissolved in 20 ml of TrisHCl buffer. The products of the invention are evaluated for their capacity to inhibit the degradation of elastin, which can be followed by fluorescence (excitation at 530 nm; emission at 590 nm) after the incubation, for 20 min at 37° C., of a mixture comprising the substrate, the enzyme and the inhibitor to be tested. The results are given as % inhibition relative to the inhibitor-free control.

[5] = Determination of the free radical inhibiting activity in vitro; conditions: 30 minutes; for % free radical inhibiting activity: dissolved in ethoxydiglycol, control subtracted; for Free radical inhibiting activity: compound at 25 mM, dissolved in DMSO, DMSO control subtracted
Description: A 60 μM solution of 1,1-diphenyl-2-picrylhydrazyl in ethanol is placed in contact, for 30 minutes at room temperature, with a sample originating from the products of the invention whose free radical inhibiting power is to be determined. […] The higher the percentage decrease, the stronger will be the free radical inhibiting activity of the active ingredient tested.

[6] = test concentration 1.03^−3 mol/l
[7] = test concentration 1.03^−4 mol/l
[8] = test concentration 1.03^−5 mol/l

Compound: CCCC(=O)Oc1cc(OC(=O)CCC)c2c(c1)OC(c1ccc(OC)c(OC(=O)CCC)c1)CC2=O (stereo not shown) [Example 12, hesperitin triacylated by C4]
Skin irritation [1]: did not cause any irritation phenomena

Color of the solutions 1 day after manufacture ([2]; pH 5, 4° C.): 157C | Color of the solutions 21 days after manufacture ([2]; pH 5, 4° C.): black + | Color of the solutions 1 day after manufacture ([2]; pH 5, 20° C.): 157C | Color of the solutions 21 days after manufacture ([2]; pH 5, 20° C.): black + | Color of the solutions 1 day after manufacture ([2]; pH 5, 45° C.): 157C | Color of the solutions 21 days after manufacture ([2]; pH 5, 45° C.): black + | Color of the solutions 1 day after manufacture ([2]; pH 6, 4° C.): 157C | Color of the solutions 21 days after manufacture ([2]; pH 6, 4° C.): black + | Color of the solutions 1 day after manufacture ([2]; pH 6, 20° C.): 157C | Color of the solutions 21 days after manufacture ([2]; pH 6, 20° C.): black + | Color of the solutions 1 day after manufacture ([2]; pH 6, 45° C.): 157C | Color of the solutions 21 days after manufacture ([2]; pH 6, 45° C.): black + | Stability test: color of cream, T 1 day ([3]; 520 μM in cream (emulsion)): light beige | Stability test: color of cream, T 7 days ([3]; 520 μM in cream (emulsion)): yellow | Stability test: color of cream, T 25 days ([3]; 520 μM in cream (emulsion)): yellow | Stability test: color of cream, T 35 days ([3]; 520 μM in cream (emulsion)): yellow | Stability test: color of cream, T 1 day ([3]; 1043 μM in cream (emulsion)): more | Stability test: color of cream, T 7 days ([3]; 1043 μM in cream (emulsion)): very yellow | Stability test: color of cream, T 25 days ([3]; 1043 μM in cream (emulsion)): very yellow | Stability test: color of cream, T 35 days ([3]; 1043 μM in cream (emulsion)): very yellow | Anti-elastase test: % inhibition relative to the inhibitor-free control [4, 6]: 20% | Anti-elastase test: % inhibition relative to the inhibitor-free control [4, 7]: 24% | Anti-elastase test: % inhibition relative to the inhibitor-free control [4, 8]: 0% | % free radical inhibiting activity ([5]; 0.103 mol/l): 94% | % free radical inhibiting activity ([5]; 1.03^−3 mol/l): 28% | % free radical inhibiting activity ([5]; 1.03^−5 mol/l): 8%
Compound: COc1ccc([C@@H]2CC(=O)c3c(O)cc(O)cc3O2)cc1O [Hesperitin, hesperitin]
Free radical inhibiting activity [5]: 42%

Anti-elastase test: % inhibition relative to the inhibitor-free control ([4]; test concentration 0.103 mol/l): 100% | Anti-elastase test: % inhibition relative to the inhibitor-free control [4, 6]: 50% | Anti-elastase test: % inhibition relative to the inhibitor-free control [4, 7]: 36% | Anti-elastase test: % inhibition relative to the inhibitor-free control [4, 8]: 34%
Compound: Hesperitin monoacylated by C12 [Example 7]

Compound: hesperitin diacylated by C12 [Example 6]
Anti-elastase test: % inhibition relative to the inhibitor-free control ([4]; test concentration 0.103 mol/l): 100% | Anti-elastase test: % inhibition relative to the inhibitor-free control [4, 6]: 65% | Anti-elastase test: % inhibition relative to the inhibitor-free control [4, 8]: 29% | Free radical inhibiting activity [5]: 67%

Compound: hesperitin triacylated by C18:2 [Example 15]
Skin irritation [1]: did not cause any irritation phenomena
